The results in this text go back to article PMC10175918 (Communications Biology, 2023).

Holding throughout (assay): TGFα-shedding assay-based GPCR screening with chimeric Gα subunit proteins
Holding throughout (format): cell-based

Test [1] deals with T1, 348 GPCRs (Homo sapiens, UniProt O15354).
T1 construct: expressed in transfected cells; host or cells: HEK293A
T1 sequence (O15354 27-613): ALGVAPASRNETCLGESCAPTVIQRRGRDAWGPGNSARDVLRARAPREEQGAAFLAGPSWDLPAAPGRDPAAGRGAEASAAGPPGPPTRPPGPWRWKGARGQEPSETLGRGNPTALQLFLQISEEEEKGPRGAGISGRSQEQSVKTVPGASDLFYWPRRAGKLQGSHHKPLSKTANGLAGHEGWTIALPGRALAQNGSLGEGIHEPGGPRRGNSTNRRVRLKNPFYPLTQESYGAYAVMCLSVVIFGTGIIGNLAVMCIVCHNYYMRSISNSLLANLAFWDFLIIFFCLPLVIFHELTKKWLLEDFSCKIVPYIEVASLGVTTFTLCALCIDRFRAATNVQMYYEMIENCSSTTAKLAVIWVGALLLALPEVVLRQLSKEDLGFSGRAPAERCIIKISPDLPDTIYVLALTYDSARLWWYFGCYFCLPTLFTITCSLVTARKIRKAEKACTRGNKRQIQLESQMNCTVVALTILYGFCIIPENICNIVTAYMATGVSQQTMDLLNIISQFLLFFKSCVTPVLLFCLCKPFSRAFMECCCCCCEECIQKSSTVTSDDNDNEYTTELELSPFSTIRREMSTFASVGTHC
Conditions: 10µM, Favipiravir 100μM.

Test [2] deals with T2, 348 GPCRs (Homo sapiens, UniProt P46092).
T2 construct: expressed in transfected cells; host or cells: HEK293A
T2 sequence (P46092 1-362): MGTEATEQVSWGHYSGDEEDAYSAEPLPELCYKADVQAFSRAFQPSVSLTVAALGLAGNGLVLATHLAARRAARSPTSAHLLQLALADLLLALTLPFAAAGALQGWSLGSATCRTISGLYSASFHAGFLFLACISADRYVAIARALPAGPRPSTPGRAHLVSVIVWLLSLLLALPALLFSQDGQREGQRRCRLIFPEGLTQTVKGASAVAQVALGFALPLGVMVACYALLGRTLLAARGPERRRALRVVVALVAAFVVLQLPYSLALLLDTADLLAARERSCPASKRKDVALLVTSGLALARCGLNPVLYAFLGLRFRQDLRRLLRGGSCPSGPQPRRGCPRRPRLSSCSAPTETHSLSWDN
The following applies: 10µM, Favipiravir 100μM.

Test [3] concerns the target 348 GPCRs (Homo sapiens, UniProt Q8IYL9). Conditions: GPCR GPR65 (G protein-coupled receptor 65).
The target of test [4] is T3, 348 GPCRs (Homo sapiens, UniProt P47901).
T3 construct: expressed in transfected cells; host or cells: HEK293A
T3 sequence (P47901 1-424): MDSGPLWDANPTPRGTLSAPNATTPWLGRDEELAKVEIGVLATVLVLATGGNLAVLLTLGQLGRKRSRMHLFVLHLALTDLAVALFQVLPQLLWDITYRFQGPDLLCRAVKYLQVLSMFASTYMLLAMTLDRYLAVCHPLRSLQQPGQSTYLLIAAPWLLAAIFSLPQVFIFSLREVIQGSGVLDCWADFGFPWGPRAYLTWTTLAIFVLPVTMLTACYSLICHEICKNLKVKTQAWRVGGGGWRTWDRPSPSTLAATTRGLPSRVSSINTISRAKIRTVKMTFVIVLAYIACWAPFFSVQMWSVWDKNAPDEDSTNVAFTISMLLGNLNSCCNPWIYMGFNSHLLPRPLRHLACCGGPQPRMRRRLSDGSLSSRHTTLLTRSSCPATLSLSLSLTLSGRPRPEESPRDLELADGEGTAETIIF

For test [5], the target named is T4, 348 GPCRs (Homo sapiens, UniProt Q13255).
T4 construct: expressed in transfected cells; host or cells: HEK293A
T4 sequence (Q13255 19-1194): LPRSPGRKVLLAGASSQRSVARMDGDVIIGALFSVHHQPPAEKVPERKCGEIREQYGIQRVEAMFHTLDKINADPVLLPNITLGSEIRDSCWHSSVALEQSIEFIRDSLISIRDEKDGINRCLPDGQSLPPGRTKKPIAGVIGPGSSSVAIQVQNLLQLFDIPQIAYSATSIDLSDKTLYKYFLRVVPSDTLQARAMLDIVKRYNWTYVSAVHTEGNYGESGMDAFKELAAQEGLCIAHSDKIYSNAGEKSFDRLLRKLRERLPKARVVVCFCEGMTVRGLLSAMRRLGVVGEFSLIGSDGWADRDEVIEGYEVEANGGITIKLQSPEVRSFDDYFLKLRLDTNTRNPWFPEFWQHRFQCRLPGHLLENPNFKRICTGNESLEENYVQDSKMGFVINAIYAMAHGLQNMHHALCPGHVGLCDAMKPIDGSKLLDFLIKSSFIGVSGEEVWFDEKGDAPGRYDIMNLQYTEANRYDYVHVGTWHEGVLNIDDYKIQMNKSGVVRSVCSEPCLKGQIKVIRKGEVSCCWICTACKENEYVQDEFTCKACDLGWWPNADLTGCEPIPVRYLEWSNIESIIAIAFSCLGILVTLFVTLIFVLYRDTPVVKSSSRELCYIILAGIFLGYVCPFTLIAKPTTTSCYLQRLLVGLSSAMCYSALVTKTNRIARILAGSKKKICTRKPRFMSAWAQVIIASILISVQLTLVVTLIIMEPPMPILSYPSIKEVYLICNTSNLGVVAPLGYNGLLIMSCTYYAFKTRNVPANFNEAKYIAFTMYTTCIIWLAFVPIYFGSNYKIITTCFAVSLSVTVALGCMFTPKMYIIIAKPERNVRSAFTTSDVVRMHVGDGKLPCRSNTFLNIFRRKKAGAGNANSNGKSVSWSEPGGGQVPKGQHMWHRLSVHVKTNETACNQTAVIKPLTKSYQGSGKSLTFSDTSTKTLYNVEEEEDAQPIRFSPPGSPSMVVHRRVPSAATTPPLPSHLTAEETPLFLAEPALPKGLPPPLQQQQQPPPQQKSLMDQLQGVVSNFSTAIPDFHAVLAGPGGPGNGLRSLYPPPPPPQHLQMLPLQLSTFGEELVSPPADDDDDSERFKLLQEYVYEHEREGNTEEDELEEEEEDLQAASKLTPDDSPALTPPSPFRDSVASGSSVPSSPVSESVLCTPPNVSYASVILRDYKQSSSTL
Conditions: 10µM, Favipiravir 100μM.

Test [6] deals with T5, 348 GPCRs (Homo sapiens, UniProt P47871).
T5 construct: expressed in transfected cells; host or cells: HEK293A
T5 sequence (P47871 26-477): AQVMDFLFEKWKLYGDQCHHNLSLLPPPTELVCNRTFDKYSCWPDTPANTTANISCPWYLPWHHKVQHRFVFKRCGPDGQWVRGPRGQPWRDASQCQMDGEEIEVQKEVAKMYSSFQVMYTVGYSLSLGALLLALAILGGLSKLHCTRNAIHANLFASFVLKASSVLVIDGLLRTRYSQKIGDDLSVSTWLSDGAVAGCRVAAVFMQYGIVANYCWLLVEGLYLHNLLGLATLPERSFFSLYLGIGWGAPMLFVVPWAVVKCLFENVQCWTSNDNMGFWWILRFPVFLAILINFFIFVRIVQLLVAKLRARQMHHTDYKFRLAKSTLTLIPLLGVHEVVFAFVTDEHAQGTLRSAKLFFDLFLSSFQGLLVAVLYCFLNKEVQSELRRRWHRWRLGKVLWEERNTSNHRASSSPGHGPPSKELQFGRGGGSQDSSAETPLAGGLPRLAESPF
The following applies: 10µM, Favipiravir 100μM.

Test [7] has as its target T6, 348 GPCRs (Homo sapiens, UniProt Q99679).
T6 construct: expressed in transfected cells; host or cells: HEK293A
The following applies: 10µM, Favipiravir 100μM.

Setting [8] is: read-out: % GPCR activation compared to TPA, GPR37 (G protein-coupled receptor 37).
Where [9] appears, read: read-out: % GPCR activation compared to TPA, CCR10 (C-C motif chemokine receptor 10).
Setting [10] is: read-out: % GPCR activation compared to TPA, GPCR V1B (arginine vasopressin receptor 1B).
Where [11] appears, read: read-out: % GPCR activation compared to TPA, GRM1 (glutamate receptor, metabotropic 1).
Where [12] appears, read: read-out: % GPCR activation compared to TPA, GCGR (glucagon receptor).
[13] abbreviates: read-out: % GPCR activation compared to TPA, GPR21 (G Protein-Coupled Receptor 21).
Setting [14] is: GPR37 (G protein-coupled receptor 37), read-out: % GPCR activation compared to TPA.
Where [15] appears, read: CCR10 (C-C motif chemokine receptor 10), read-out: % GPCR activation compared to TPA.
Where [16] appears, read: GRM1 (glutamate receptor, metabotropic 1), read-out: % GPCR activation compared to TPA.
Setting [17] is: GCGR (glucagon receptor), read-out: % GPCR activation compared to TPA.
The mark [18] stands for this setting: GPR21 (G Protein-Coupled Receptor 21), read-out: % GPCR activation compared to TPA.
The mark [19] stands for this setting: GPCR V1B (arginine vasopressin receptor 1B), read-out: % GPCR activation compared to TPA.

Like-named read-outs stand apart in the source and are kept apart here.

348 GPCRs (Homo sapiens, UniProt Q8IYL9), sequence (Q8IYL9 whole entry): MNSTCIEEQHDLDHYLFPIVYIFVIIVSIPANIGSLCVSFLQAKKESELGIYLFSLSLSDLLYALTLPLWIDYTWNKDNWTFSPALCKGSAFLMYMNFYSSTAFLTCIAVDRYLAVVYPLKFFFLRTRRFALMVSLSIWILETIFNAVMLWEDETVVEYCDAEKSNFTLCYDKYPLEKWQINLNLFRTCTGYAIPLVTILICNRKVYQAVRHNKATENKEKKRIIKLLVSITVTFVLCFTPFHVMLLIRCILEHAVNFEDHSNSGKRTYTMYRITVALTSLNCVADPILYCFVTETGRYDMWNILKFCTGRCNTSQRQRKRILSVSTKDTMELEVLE
T6 sequence (Q99679 whole entry): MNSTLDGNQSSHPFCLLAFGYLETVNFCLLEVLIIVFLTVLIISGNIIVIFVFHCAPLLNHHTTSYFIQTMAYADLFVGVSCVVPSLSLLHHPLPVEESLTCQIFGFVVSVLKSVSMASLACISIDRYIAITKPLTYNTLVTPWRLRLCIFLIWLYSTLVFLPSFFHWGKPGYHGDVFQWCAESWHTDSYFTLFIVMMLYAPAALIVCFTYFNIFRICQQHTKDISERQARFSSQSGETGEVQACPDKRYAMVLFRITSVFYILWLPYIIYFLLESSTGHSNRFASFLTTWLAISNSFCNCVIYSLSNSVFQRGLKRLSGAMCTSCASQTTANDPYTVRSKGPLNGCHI

On to `CC(C)OC(=O)[C@H](C)N[P@](=O)(OC[C@H]1O[C@@H](n2ccc(=O)[nH]c2=O)[C@](C)(F)[C@@H]1O)Oc1ccccc1` [sofosbuvir], for which the activation at 10 µM is -2.61% on 348 GPCRs [1] (setting [8]), -0.149% at 348 GPCRs [4] (setting [10]) and 0.735% at 348 GPCRs [5] (setting [11]). In addition, the values for the activation at 100 µM at 348 GPCRs [2] (setting [9]), at 348 GPCRs [6] (setting [12]) and on 348 GPCRs [7] (setting [13]) were 0.131%, -0.806% and 0.161%, respectively. Besides, the “% GPCR activation compared to TPA” value on 348 GPCRs [3] (10µM) is -10.455%.
With `NC(=O)c1nc(F)cnc1O` [favipiravir, 6-fluoro-3-hydroxy-2-pyrazinecarboxamide], the values for the activation at 10 µM on 348 GPCRs [1] (setting [14]) and at 348 GPCRs [5] (setting [16]) were -0.655% and -0.946%, respectively. For the same molecule, the activation at 100 µM at 348 GPCRs [2] (setting [15]) was -6.03%; at 348 GPCRs [4] (GPCR V1B (arginine vasopressin receptor 1B), 100μM, read-out: % GPCR activation compared to TPA), 1.12%; on 348 GPCRs [6] (setting [17]) it was 2.23%; at 348 GPCRs [7] (setting [18]), -0.0313%. In addition, the “% GPCR activation compared to TPA” value on 348 GPCRs [3] (100μM) was 1.278%.
`CCC(CC)COC(=O)[C@H](C)N[P@](=O)(OC[C@H]1O[C@@](C#N)(c2ccc3c(N)ncnn23)[C@H](O)[C@@H]1O)Oc1ccccc1` [remdesivir]: the values for the activation at 10 µM on 348 GPCRs [1] (setting [8]), at 348 GPCRs [4] (setting [10]) and at 348 GPCRs [5] (setting [11]) were -0.881%, 1.47% and -0.568%, respectively. Further, the results for the activation at 100 µM at 348 GPCRs [2] (setting [9]), on 348 GPCRs [6] (setting [12]) and on 348 GPCRs [7] (setting [13]) were -7.76%, 2.91% and -0.776%, respectively. Also, the “% GPCR activation compared to TPA” value on 348 GPCRs [3] (10µM) is listed as -1.387%.
Turning to `N#C[C@@]1(c2ccc3c(N)ncnn23)O[C@H](CO)[C@@H](O)[C@H]1O` [GS441524], the activation at 10 µM on 348 GPCRs [1] (setting [14]) is -2.53%; at 348 GPCRs [4] (setting [19]), 0.627%; on 348 GPCRs [5] (setting [16]), -0.549%. The results for the activation at 100 µM on 348 GPCRs [2] (setting [15]), at 348 GPCRs [6] (setting [17]) and on 348 GPCRs [7] (setting [18]) were -6.97%, 0.277% and 0.0472%, respectively. Also, the “% GPCR activation compared to TPA” value at 348 GPCRs [3] (10µM) is -3.0793%.
As to `CC(C)C(=O)OC[C@H]1O[C@@H](n2ccc(NO)nc2=O)[C@H](O)[C@@H]1O` [molnupiravir], the activation at 10 µM on 348 GPCRs [1] (setting [14]) was -2.05%; at 348 GPCRs [4] (setting [19]), -0.66%; at 348 GPCRs [5] (setting [16]), -0.761%. Also, the activation at 100 µM at 348 GPCRs [2] (setting [15]) amounted to 0.0221%; on 348 GPCRs [6] (setting [17]), 0.495%; at 348 GPCRs [7] (setting [18]), 0.1%. Moreover, the “% GPCR activation compared to TPA” value on 348 GPCRs [3] (10µM) is -8.376%.
